Measured values published in patent US9271978B2 (Zenith Epigenetics Corp., priority 2012, dated 2016).
Counter-ions that a name gives are not always drawn.

Columns and labels:
[1] = target: T1, second bromodomain of Brd2 (BRD2(2)) (Homo sapiens, UniProt P25440); test: Inhibition of tetra-acetylated histone H4 binding to Brd2 bromodomain 2 (TR-FRET); design: key: Active: Compounds with an IC50 value less than 30 μM were deemed to be active.; Not Active: Compounds with an IC50 value less than 30 μM were deemed to be active; details: tetra-acetylated histone H4 peptide, active = IC50 <30 μM
T1 construct: made in house; host or cells: E. coli BL21 (DE3)
Description: (§1) Proteins were cloned and overexpressed with a N-terminal 6×His tag, then purified by nickel affinity followed by size exclusion chromatography. Briefly, E. coli BL21 (DE3) cells were transformed with a recombinant expression vector encoding N-terminally Nickel affinity tagged bromodomains from Brd2, Brd3, Brd4. Cell cultures were incubated at 37° C. with shaking to the appropriate density and induced overnight with IPTG. The supernatant of lysed cells was loaded onto Ni-IDA column for purification. Eluted protein is pooled, concentrated and further purified by size exclusion chromatography. Fractions representing monomeric protein were pooled, concentrated, aliquoted, and frozen at −80° C. for use in subsequent experiments.
(§2) Binding of tetra-acetylated histone H4 and BET bromodomains was confirmed by a Time Resolved Fluorescence Resonance Energy Transfer (TR-FRET) method. N-terminally His-tagged bromodomains (200 nM) and biotinylated tetra-acetylated histone H4 peptide (25-50 nM, Millipore) were incubated in the presence of Europium Cryptate-labeled streptavidin (Cisbio Cat. #610SAKLB) and XL665-labeled monoclonal anti-His antibody (Cisbio Cat. #61HISXLB) in a white 96 well microtiter plate (Greiner). For inhibition assays, serially diluted test compound was added to these reactions in a 0.2% final concentration of DMSO. Final buffer concentrations were 30 mM HEPES pH 7.4, 30 mM NaCl, 0.3 mM CHAPS, 20 mM phosphate pH 7.0, 320 mM KF, 0.08% BSA). After a 2-h incubation at room temperature, the fluorescence by FRET was measured at 665 and 620 nm by a SynergyH4 plate reader (Biotek). Illustrative results with the first bromodomain of Brd4 and the second bromodomain of Brd2 are shown below. The binding inhibitory activity was shown by a decrease in 665 nm fluorescence relative to 620 nm. IC50 values were determined from a dose response curve.

[2] = target: T2, Brd4 bromodomain 1 (BRD4(1)) (Homo sapiens, UniProt O60885); test: Inhibition of tetra-acetylated histone H4 binding to Brd4 bromodomain 1 (TR-FRET); design: key: Active: Compounds with an IC50 value less than 30 μM were deemed to be active.; Not Active: Compounds with an IC50 value less than 30 μM were deemed to be active; details: tetra-acetylated histone H4 peptide, active = IC50 <30 μM
T2 construct: Illustrative results with the first bromodomain of Brd4; made in house; host or cells: E. coli BL21 (DE3)
Description: as §1, §2

T1 sequence (P25440 344-453 limits assumed): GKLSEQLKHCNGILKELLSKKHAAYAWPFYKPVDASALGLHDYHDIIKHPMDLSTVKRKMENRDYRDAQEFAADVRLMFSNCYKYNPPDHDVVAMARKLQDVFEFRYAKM

| SMILES | FRET activity (IC50 <30 μM) BRD2(2) [1] | FRET activity (IC50 <30 μM) BRD4(1) [2] |
| --- | --- | --- |
| Cc1noc(C)c1-c1ccc(=O)n(CC2CCNCC2)c1 [Example 10, 5-(3,5-Dimethylisoxazol-4-yl)-1-(piperidin-4-ylmethyl)pyridin-2(1H)-one hydrochloric acid] | Active | Active |
| COc1cc(-c2ccc(=O)n(Cc3ccc(S(C)(=O)=O)cc3)n2)cc(OC)c1OC [Example 116, 2-(4-(Methylsulfonyl)benzyl)-6-(3,4,5-trimethoxyphenyl)pyridazin-3(2H)-one] | Active | Active |
| Cc1noc(C)c1-c1ccc(=O)n(Cc2ccccc2)c1Cl [Example 114, 1-Benzyl-6-chloro-5-(3,5-dimethylisoxazol-4-yl)pyridin-2(1H)-one] | Active | Active |
| O=c1ccc(-c2ccnc(O)c2)cn1Cc1ccccc1 [Example 62, 1-Benzyl-2′-hydroxy-[3,4′-bipyridin]-6(1H)-one] | Active | Not Active |
| Cc1noc(C)c1-c1ccc(=O)n(Cc2c(F)cc(F)cc2F)n1 [Example 92, 6-(3,5-Dimethylisoxazol-4-yl)-2-(2,4,6-trifluorobenzyl)pyridazin-3(2H)-one] | Active | Active |
| COc1cccc(Cn2nc(-c3c(C)noc3C)ccc2=O)c1 [Example 35, 6-(3,5-Dimethylisoxazol-4-yl)-2-(3-methoxybenzyl)pyridazin-3(2H)-one] | Active | Active |
| O=c1ccc(-c2cnoc2)cn1Cc1ccccc1 [Example 58, 1-Benzyl-5-(isoxazol-4-yl)pyridin-2(1H)-one] | Active | Not Active |
| Cc1oncc1-c1cc(C)c(=O)n(Cc2ccccc2)n1 [Example 20, 2-Benzyl-4-methyl-6-(5-methylisoxazol-4-yl)pyridazin-3(2H)-one] | Active | Not Active |
| Cc1noc(C)c1-c1cc(C)c(=O)n(CC2CC2)n1 [Example 85, 2-(Cyclopropylmethyl)-6-(3,5-dimethylisoxazol-4-yl)-4-methylpyridazin-3(2H)-one] | Active | Active |
| Cc1noc(C)c1-c1cc(C2CC2)c(=O)n(Cc2ccccc2)c1 [Example 67, 1-Benzyl-3-cyclopropyl-5-(3,5-dimethylisoxazol-4-yl)pyridin-2(1H)-one] | Active | Active |
| Cc1noc(C)c1-c1ccc(=O)n(CC2CC2)n1 [Example 45, 2-(Cyclopropylmethyl)-6-(3,5-dimethylisoxazol-4-yl)pyridazin-3(2H)-one] | Active | Active |
| Cc1noc(C)c1-c1cnc(=O)n(Cc2ccccc2)c1 [Example 8, 1-Benzyl-5-(3,5-dimethylisoxazol-4-yl)pyrimidin-2(1H)-one] | Active | Active |
| Cc1noc(C)c1-c1ccc(=O)n(C(=O)c2ccc(Cl)cc2)c1 [Example 69, 1-(4-Chlorobenzoyl)-5-(3,5-dimethylisoxazol-4-yl)pyridin-2(1H)-one] | Active | Active |
| Cc1noc(C)c1-c1ccc(=O)n(Cc2ccc3ccccc3c2)n1 [Example 77, 6-(3,5-Dimethylisoxazol-4-yl)-2-(naphthalen-2-ylmethyl)pyridazin-3(2H)-one] | Active | Active |
| Cc1noc(C)c1Nc1ccc(=O)n(Cc2ccccc2)n1 [Example 61] | Active | Active |
| Cc1oncc1-c1ccc(=O)n(Cc2ccccc2)c1 [Example 57, 1-Benzyl-5-(5-methylisoxazol-4-yl)pyridin-2(1H)-one] | Active | Active |
| Cc1noc(C)c1-c1cc(N)c(=O)n(Cc2cccc3c2OCO3)c1 [Example 257, 3-amino-1-(benzo[d][1,3]dioxol-4-ylmethyl)-5-(3,5-dimethylisoxazol-4-yl)pyridin-2(1H)-one] | – | Active |

| SMILES | FRET activity (IC50 <30 μM) BRD2(2) [1] | FRET activity (IC50 <30 μM) BRD4(1) [2] |
| --- | --- | --- |
| Cc1noc(C)c1-c1cc(NCC(F)(F)F)c(=O)n(Cc2ccc(Cl)cc2)c1 [Example 243, 1-(4-Chlorobenzyl)-5-(3,5-dimethylisoxazol-4-yl)-3-((2,2,2-trifluoroethyl)amino)pyridin-2(1H)-one] | – | Active |
| Cc1noc(C)c1-c1cc(C(=O)O)c(=O)n(Cc2ccccc2)c1 [Example 229, 1-Benzyl-5-(3,5-dimethylisoxazol-4-yl)-2-oxo-1,2-dihydropyridine-3-carboxylic acid] | – | Active |
| Cc1ccc(Nc2cc(-c3c(C)noc3C)cn(Cc3ccccc3)c2=O)cn1 [Example 245, 1-benzyl-5-(3,5-dimethylisoxazol-4-yl)-3-((6-methylpyridin-3-yl)amino)pyridin-2(1H)-one] | – | Active |
| COC(=O)c1noc(C)c1-c1ccc(=O)n(Cc2ccc(Cl)cc2)c1 [Example 199, Methyl 4-(1-(4-chlorobenzyl)-6-oxo-1,6-dihydropyridin-3-yl)-5-methylisoxazole-3-carboxylate] | – | Not Active |
| CC(c1ccccc1)n1nc(-c2ccc(O)cc2)ccc1=O (centres unmarked) [Example 178, 6-(4-hydroxyphenyl)-2-(1-phenylethyl)pyridazin-3(2H)-one] | – | Active |
| Cc1noc(C)c1-c1cc(Nc2ccc(F)cc2)c(=O)n(Cc2ccccc2)c1 [Example 156, 1-Benzyl-5-(3,5-dimethylisoxazol-4-yl)-3-((4-fluorophenyl)amino)pyridin-2(1H)-one] | – | Active |
| Cc1noc(C)c1-c1cc(-n2ccnc2)c(=O)n(Cc2ccccc2)c1 [Example 204, 1-benzyl-5-(3,5-dimethylisoxazol-4-yl)-3-(1H-imidazol-1-yl)pyridin-2(1H)-one] | – | Active |
| Cc1noc(C)c1-c1cc(Nc2cccnc2)c(=O)n(Cc2ccccc2)n1 [Example 248, 2-benzyl-6-(3,5-dimethylisoxazol-4-yl)-4-(pyridin-3-ylamino)pyridazin-3(2H)-one] | – | Active |
| Cc1onc(CO)c1-c1ccc(=O)n(Cc2ccc(Cl)cc2)c1 [Example 159, 1-(4-Chlorobenzyl)-5-(3-(hydroxymethyl)-5-methylisoxazol-4-yl)pyridin-2(1H)-one] | – | Active |
| Cc1noc(C)c1-c1cc(N2CCN(C)CC2)c(=O)n(Cc2ccccc2)c1 [Example 153, 1-Benzyl-5-(3,5-dimethylisoxazol-4-yl)-3-(4-methylpiperazin-1-yl)pyridin-2(1H)-one Hydrochloride] | – | Active |
| COc1cc(=O)n(Cc2ccccc2)cc1-c1c(C)noc1C [Example 154, 1-Benzyl-5-(3,5-dimethylisoxazol-4-yl)-4-methoxypyridin-2(1H)-one] | – | Active |
| Cc1noc(C)c1-c1cc(NC2CCNC2)c(=O)n(Cc2ccccc2)c1 (centres unmarked) [Example 239, 1-benzyl-5-(3,5-dimethylisoxazol-4-yl)-3-(pyrrolidin-3-ylamino)pyridin-2(1H)-one] | – | Active |
| Cc1nnc(C)n1-c1ccc(=O)n(Cc2ccc(Cl)cc2)c1 [Example 197, 1-(4-chlorobenzyl)-5-(3,5-dimethyl-4H-1,2,4-triazol-4-yl)pyridin-2(1H)-one] | – | Not Active |
| Cc1noc(C)c1-c1cc(Nc2ccncc2)c(=O)n(Cc2ccccc2)c1 [Example 195, 1-benzyl-5-(3,5-dimethylisoxazol-4-yl)-3-(pyridin-4-ylamino)pyridin-2(1H)-one] | – | Active |
| Cc1noc(C)c1-c1cc(N)c(=O)n(Cc2ccncc2Cl)c1 [Example 253] | – | Active |
| COc1ccc(Nc2cc(-c3c(C)noc3C)cn(Cc3ccccc3)c2=O)cn1 [Example 234, 1-benzyl-5-(3,5-dimethylisoxazol-4-yl)-3-((6-methoxypyridin-3-yl)amino)pyridin-2(1H)-one] | – | Active |
| Cc1nsc(C)c1-c1ccc(=O)n(Cc2ccccc2)c1 [Example 196, 1-benzyl-5-(3,5-dimethylisothiazol-4-yl)pyridin-2(1H)-one] | – | Active |
